Measurements: US5068247A, “2-aminopentanoic acid compounds and their use as immunosuppressants” (priority 1989, dated 1991)
≈ marks a conversion by molar mass, not a printed value.

Legend:
[1] = cytotoxicity to cultured tumor cell line K562; conditions: human, k562 cells, Suppression
Description: (§1) Cytotoxicity to various human tumor cell lines was examined as follows:
(§2) Cells of human cell lines, K562, MOLT4, U937 and HL60 were respectively suspended to the concentration of 4×10^5 cells/ml in the RPMI1640 culture medium supplemented with 20% FCS. Fifty μl of each suspension was added to each well of a 96-well microtest plate to which 50 μl of the test solution had been added. After culturing the suspension at 37° C. in an atmosphere of 5% carbon dioxide for 72 hours, the absorbancy at 570 nm was measured in the same way as with the colorimetry using MTT in Experiment Example 1, and the percent suppression was calculated by the following formula, which was used as an index of cytotoxicity.

K562 = assay: cytotoxicity to cultured tumor cell line K562
Description: as §1, §2

[2] = cytotoxicity to cultured tumor cell line U937; type: cell-based, human; conditions: human, u937 cells; 0.1 μg/ml; read-out: Suppression
Description: as §1, §2

U937 = assay: cytotoxicity to cultured tumor cell line U937; type: cell-based, human
Description: as §1, §2

[3] = cytotoxicity to cultured tumor cell line HL60; conditions: human, hl60 cells, Suppression
Description: as §1, §2

HL60 = assay: cytotoxicity to cultured tumor cell line HL60
Description: as §1, §2

MOLT4 = assay: cytotoxicity to cultured tumor cell line MOLT4; type: cell-based, human
Description: as §1, §2

[4] = cytotoxicity to cultured tumor cell line MOLT4; type: cell-based, human; conditions: human, molt4 cells, read-out: Suppression
Description: as §1, §2

[5] = test system: mouse allogenic MLR (BALB/c mouse spleen cells stimulated with C57BL/6 mouse spleen cells); assay: mouse allogenic mixed lymphocyte reaction (MLR), 3H-thymidine uptake; type: cell-based
Description: The immunosuppressive activity of the compounds was assayed on the basis of mouse allogenic mixed lymphocyte reaction (hereinafter sometimes abbreviated as MLR). Mouse allogenic MRL was carried out using a mixed culture of BALB/c mouse (H-2^d) spleen cells as the responder cells and mitomycin C-treated C57BL/6 ([…]) mouse spleen cells as the stimulator cells in equal amounts.
The responder cells were prepared as follows:
The spleen was resected from 5- to 6-week-old BALB/c mice, and single cell suspension of spleen cells was prepared by using the RPMI1640 culture medium (containing 60 μg/ml of kanamycin sulfate, 2 mM of L-glutamine, 10 mM of N-2-hydroxyethylpiperazine-N'-2-ethanesulphonate (HEPES) and 0.1% sodium hydrogencarbonate) to which heat-inactivated fetal calf serum (hereinafter sometimes abbreviated as FCS) had been added to 5%. After hemolytic treatment, the cell suspension was adjusted to a concentration of 10^7 cells/ml with the RPMI1640 culture medium supplemented with 10^-4 M 2-mercapto-ethanol and 20% FCS, and was used as the responder cell suspension.
The stimulator cells were prepared as follows: The spleen was resected from 5- to 6-week-old male C57BL/6 mice, and a single cell suspension of spleen cells was prepared by using the RPMI1640 culture medium. After hemolytic treatment, the cells were treated with 40 μg/ml of mitomycin C at 37° C. for 60 minutes. After washing three times, the cell suspension was adjusted to a concentration of 10^7 cells/ml with the RPMI1640 culture medium supplemented with 10^-4 M 2-mercapto-ethanol and 20% FCS, and was used as the stimulator cell suspension.
The blastogenesis of lymphocytes was assayed using ^3 H-thymidine uptake as an index. That is, after termination of culture, 18.5 KBq/well of ^3 H-thymidine was added thereto and the suspension was cultured for 4 hours. Cells were harvested by a cell-harvester, and the radioactivity incorporated into the cells was determined by a liquid scintillation counter, which was used as an index of blastogenesis of lymphocytes in the mouse allogenic MLR. The suppression of the mouse allogenic MLR was evaluated by calculating the percent suppression by the following formula.
The test substance dissolved in methanol was diluted with the RPMI1640 culture medium and put to use.

**Q.** With CCCCCCC(CCCCCC/C=C/C[C@@H](O)[C@H](O)[C@@](N)(CO)C(=O)O)=NO [Example 4] as the compound, how does the cytotoxicity at 72 h ([1]; 0.1 μg/ml) read?
**A.** 0%

**Q.** What about the cytotoxicity at 72 h ([1]; 1 μg/ml) of the same compound?
**A.** 0.6%

**Q.** And the cytotoxicity at 72 h ([1]; 10 μg/ml)?
**A.** 0%

**Q.** What about the Absorbancy (K562; 0.1 μg/ml) of the same compound?
**A.** 1.145 ± 0.038

**Q.** And the Absorbancy (K562; 1 μg/ml)?
**A.** 1.129 ± 0.021

**Q.** And the Absorbancy (K562; 10 μg/ml)?
**A.** 1.148 ± 0.032

**Q.** And the cytotoxicity at 72 h [2]?
**A.** 0%

**Q.** And the Absorbancy (U937; 0.1 μg/ml)?
**A.** 0.765 ± 0.033

**Q.** What about the Absorbancy (U937; 1 μg/ml) of the same compound?
**A.** 0.744 ± 0.017

**Q.** And the Absorbancy (U937; 10 μg/ml)?
**A.** 0.750 ± 0.048

**Q.** What about the cytotoxicity at 72 h ([3]; 0.1 μg/ml) of the same compound?
**A.** 6%

**Q.** And the cytotoxicity at 72 h ([3]; 1 μg/ml)?
**A.** 0%

**Q.** And the cytotoxicity at 72 h ([3]; 10 μg/ml)?
**A.** 8.2%

**Q.** And the Absorbancy (HL60; 0.1 μg/ml)?
**A.** 1.401 ± 0.028

**Q.** What about the Absorbancy (HL60; 1 μg/ml) of the same compound?
**A.** 1.493 ± 0.031

**Q.** And the Absorbancy (HL60; 10 μg/ml)?
**A.** 1.368 ± 0.087

**Q.** And the Absorbancy (MOLT4; 0.1 μg/ml)?
**A.** 1.026 ± 0.026

**Q.** And the Absorbancy (MOLT4; 1 μg/ml)?
**A.** 1.037 ± 0.027

**Q.** And the Absorbancy (MOLT4; 10 μg/ml)?
**A.** 1.014 ± 0.055

**Q.** And the cytotoxicity at 72 h ([4]; 0.1 μg/ml)?
**A.** 11%

**Q.** And the cytotoxicity at 72 h ([4]; 1 μg/ml)?
**A.** 10.1%

**Q.** And the cytotoxicity at 72 h ([4]; 10 μg/ml)?
**A.** 12.1%

**Q.** And the 3H-thymidine uptake ([5]; 0.0001 μg/ml, Table 1A)?
**A.** 16905 cpm

**Q.** What about the 3H-thymidine uptake ([5]; 0.001 μg/ml, Table 1A) of the same compound?
**A.** 15970 cpm

**Q.** And the 3H-thymidine uptake ([5]; 0.01 μg/ml, Table 1A)?
**A.** 15399 cpm

**Q.** And the 3H-thymidine uptake ([5]; 0.1 μg/ml, Table 1A)?
**A.** 1637 cpm

**Q.** And the 3H-thymidine uptake ([5]; 1 μg/ml, Table 1A)?
**A.** 1477 cpm

**Q.** And the inhibition at 0.0001 µg/mL ([5]; Mus musculus, Lymphocyte, 0.0001 μg/ml, Table 1A, read-out: Suppression)?
**A.** 9.1%

**Q.** What about the inhibition at 0.001 µg/mL ([5]; Mus musculus, Lymphocyte, 0.001 μg/ml, Table 1A, read-out: Suppression) of the same compound?
**A.** 14.7%

**Q.** What about the inhibition at 0.01 µg/mL ([5]; Mus musculus, Lymphocyte, 0.01 μg/ml, Table 1A, read-out: Suppression) of the same compound?
**A.** 18.1%

**Q.** What about the inhibition at 0.1 µg/mL ([5]; Mus musculus, Lymphocyte, 0.1 μg/ml, Table 1A, read-out: Suppression) of the same compound?
**A.** 99.9%

**Q.** And the inhibition at 1 µg/mL ([5]; Mus musculus, Lymphocyte, 1 μg/ml, Table 1A, read-out: Suppression)?
**A.** 100%

**Q.** And the IC50 ([5]; Mus musculus, Lymphocyte, read-out: 50%-inhibition concentration (IC50) in mouse allogenic MLR)?
**A.** 0.025 µg/mL (≈ 0.06 µM)
